Consider 15 molecules from patent US20260250289A1, “BICYCLIC HETEROCYCLES AND THEIR USE AS WRN INHIBITORS” (Novartis AG, priority 2022, published 2026).

Broadly, the IC50 is the concentration that gives 50% inhibition.

Test [1] has as its system SW48 cells. Briefly: Proliferation assay SW48 (CellTiterGlo). The class given is cell-based. The following applies: Homo sapiens, SW48, 96 h, SW48 colon carcinoma cells, 96 hours, CellTiterGlo; geometric mean of at least 2; read-out: Proliferation Assay SW48 GI50. The gist of the method: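 SW48 cells, 2,000/well, treated after overnight seeding with eight 3-fold compound dilutions (0.1% DMSO) for 96 hours at 37° C. Viability read as ATP by CellTiterGlo luminescence, normalised to a day-0 plate and vehicle to give % growth; GI50 is geometric mean of ≥2 independent replicates.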
On the technique in general: ATP-based viability assays read luminescence as a measure of living cells.

Test [2] concerns DLD1-WRN-KO cells. Briefly: Proliferation assay DLD1-WRN-KO (CellTiterGlo, off-target effects). The following applies: 96 hours, geometric mean of at least 2. The class given is cell-based. The gist of the method: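 DLD1 cells with CRISPR knockout of WRN were exposed overnight-seeded to eight 3-fold compound dilutions (0.1% DMSO) for 96 h at 37 °C. Viability was read as ATP by CellTiterGlo luminescence against a day-0 plate, giving GI50 and residual viability at top concentration.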

Test [3] has as its target T1, WRN helicase (aa N517-P1238) (Homo sapiens, UniProt Q14191).
T1 construct: The core helicase motif of the WRN protein (aa N517-P1238) was produced for this assay; His (N); ZZ (N); 3C protease cleavage site (N); made in house; host or cells: Sf21 insect cells (baculovirus; virus and BIICs made in SF9)
Briefly: WRN ATPase assay (DNA dependent ATP hydrolysis, ADP-Glo). It is filed as biochemical. The following applies: 3 hours pre-incubation, 300 micromolar ATP, FLAP26 DNA; geometric mean of at least 2. The gist of the method: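 DNA-dependent ATP hydrolysis detected as ADP by ADP-Glo luminescence, using 300 μM ATP, 0.2 nM FLAP26 substrate and 10 nM WRN aa N517-P1238 (Tris pH 7.5 buffer, 2 mM MgCl2, 50 mM NaCl). IC50s fitted from normalized duplicate half-log dilutions; reported as geometric means of at least 2 replicates.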
For orientation: In ADP-Glo the light output rises with the ADP produced.

T1 sequence (Q14191 517-1238): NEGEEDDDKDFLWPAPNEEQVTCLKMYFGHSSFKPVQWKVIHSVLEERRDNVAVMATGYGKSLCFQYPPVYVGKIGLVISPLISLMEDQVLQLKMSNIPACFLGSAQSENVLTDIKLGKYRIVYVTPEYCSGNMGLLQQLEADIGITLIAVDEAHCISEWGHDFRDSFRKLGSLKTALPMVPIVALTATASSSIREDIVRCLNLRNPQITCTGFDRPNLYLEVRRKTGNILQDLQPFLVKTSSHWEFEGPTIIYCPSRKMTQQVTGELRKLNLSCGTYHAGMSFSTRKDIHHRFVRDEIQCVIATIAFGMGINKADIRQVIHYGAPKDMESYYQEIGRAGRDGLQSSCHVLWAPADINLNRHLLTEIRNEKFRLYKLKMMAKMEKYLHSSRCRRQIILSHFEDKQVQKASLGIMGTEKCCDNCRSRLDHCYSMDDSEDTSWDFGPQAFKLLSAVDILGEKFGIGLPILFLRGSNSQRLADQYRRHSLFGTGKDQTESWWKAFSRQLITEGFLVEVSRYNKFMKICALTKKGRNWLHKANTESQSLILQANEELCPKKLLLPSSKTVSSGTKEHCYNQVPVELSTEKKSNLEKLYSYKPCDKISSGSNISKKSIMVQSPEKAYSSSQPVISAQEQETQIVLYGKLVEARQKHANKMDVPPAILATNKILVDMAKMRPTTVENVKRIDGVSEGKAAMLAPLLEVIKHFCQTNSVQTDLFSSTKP

With `CC(=O)N1CCN(c2c(C)n(CC(=O)Nc3ccc(C(F)(F)F)cc3)c3nc(N4CCC5(CCCO5)CC4)nn3c2=O)CC1` [Example 122, 2-(6-(4-acetylpiperazin-1-yl)-5-methyl-7-oxo-2-(1-oxa-8-azaspiro[4.5]decan-8-yl)-[1,2,4]triazolo[1,5-a]pyrimidin-4(7H)-yl)-N-(4-(trifluoromethyl)phenyl)acetamide], the GI50 was 5 µM in test [1] and greater than 10 µM in test [2]. The molecule further gave an IC50 in test [3] of 0.7 µM.
For the molecule `COC1CCN(c2nc3n(CC(=O)Nc4ccc(C(F)(F)F)cc4)c(C)c(N4CCN(C(C)=O)CC4)c(=O)n3n2)CC1` [Example 123, 2-(6-(4-acetylpiperazin-1-yl)-2-(4-methoxypiperidin-1-yl)-5-methyl-7-oxo-[1,2,4]triazolo[1,5-a]pyrimidin-4(7H)-yl)-N-(4-(trifluoromethyl)phenyl)acetamide], the GI50 is 9 µM in test [1] and greater than 10 µM in test [2]. In test [3], this molecule had an IC50 of 0.7 µM.
With `CC(=O)N1CCN(c2c(C)n(CC(=O)Nc3ccc(C(F)(F)F)cc3)c3nc(-c4ccc(F)cc4)nn3c2=O)CC1` [Example 124, 2-(6-(4-acetylpiperazin-1-yl)-2-(4-fluorophenyl)-5-methyl-7-oxo-[1,2,4]triazolo[1,5-a]pyrimidin-4(7H)-yl)-N-(4-(trifluoromethyl)phenyl) acetamide], the GI50 in test [1] is 4 µM; in test [2], greater than 10 µM. This molecule also showed an IC50 in test [3] of 0.7 µM.
Regarding `CC(=O)N1CCN(c2c(C)n(CC(=O)Nc3ccc(C(F)(F)F)cc3)c3nc(N4CC5CC5C4)nn3c2=O)CC1` (stereo not drawn) [Example 125, 2-(6-(4-acetylpiperazin-1-yl)-2-(3-azabicyclo[3.1.0]hexan-3-yl)-5-methyl-7-oxo-[1,2,4]triazolo[1,5-a]pyrimidin-4(7H)-yl)-N-(4-(trifluoromethyl)phenyl)acetamide], the figures for the GI50 in test [1] and in test [2] were 3 µM and greater than 10 µM, respectively. In test [3], this molecule had an IC50 of 0.8 µM.
Consider `CC(=O)N1CCN(c2c(C)n(CC(=O)Nc3ccc(C(F)(F)F)cc3)c3nc(C4=CCCOC4)nn3c2=O)CC1` [Example 126, 2-(6-(4-acetylpiperazin-1-yl)-2-(5,6-dihydro-2H-pyran-3-yl)-5-methyl-7-oxo-[1,2,4]triazolo[1,5-a]pyrimidin-4(7H)-yl)-N-(4-(trifluoromethyl)phenyl)acetamide], for which the GI50 is 4 µM in test [1] and greater than 10 µM in test [2]. In test [3], this molecule showed a concentration for half-maximal inhibition (IC50) of 0.8 µM.
As to `CC(=O)N1CCN(c2c(C)n(CC(=O)Nc3ccc(S(F)(F)(F)(F)F)cc3)c3nc(C4=CCCCO4)nn3c2=O)CC1` [Example 127, 2-(6-(4-acetylpiperazin-1-yl)-2-(3,4-dihydro-2H-pyran-6-yl)-5-methyl-7-oxo-[1,2,4]triazolo[1,5-a]pyrimidin-4(7H)-yl)-N-(4-(pentafluoro-16-sulfaneyl)phenyl)acetamide], the GI50 is greater than 10 µM in test [1] and 7 µM in test [2]. The IC50 in test [3] turned out to be 0.02 µM.
As to `CC(=O)N1CCN(c2c(C)n(CC(=O)Nc3ccc(C(F)(F)F)cc3)c3nc(-c4cnn(C(F)F)c4)nn3c2=O)CC1` [Example 128, 2-(6-(4-acetylpiperazin-1-yl)-2-(1-(difluoromethyl)-1H-pyrazol-4-yl)-5-methyl-7-oxo-[1,2,4]triazolo[1,5-a]pyrimidin-4(7H)-yl)-N-(4-(trifluoromethyl)phenyl)acetamide], the results for the GI50 in test [1] and in test [2] were 7 µM and greater than 10 µM, respectively. Also, the IC50 in test [3] was 0.8 µM.
With `CC(=O)N1CCN(c2c(C)n(CC(=O)Nc3ccc(Cl)c4c3CCC4)c3nc(C4=CCOCC4)nn3c2=O)CC1` [Example 129, 2-(6-(4-acetylpiperazin-1-yl)-2-(3,6-dihydro-2H-pyran-4-yl)-5-methyl-7-oxo-[1,2,4]triazolo[1,5-a]pyrimidin-4(7H)-yl)-N-(7-chloro-2,3-dihydro-1H-inden-4-yl)acetamide], the GI50 in test [1] was 5 µM; in test [2] it was greater than 10 µM. In test [3], this molecule yielded an IC50 of 0.8 µM.
In the case of `CC(=O)N1CCN(c2c(C)n(CC(=O)Nc3ccc(C(F)(F)F)cc3)c3nc(-c4ccccc4)nn3c2=O)CC1` [Example 130, 2-(6-(4-acetylpiperazin-1-yl)-5-methyl-7-oxo-2-phenyl-[1,2,4]triazolo[1,5-a]pyrimidin-4(7H)-yl)-N-(4-(trifluoromethyl)phenyl)acetamide], the GI50 in test [1] is 2 µM; in test [2] it was 7 µM. In test [3], this molecule had a half-inhibitory concentration (IC50) of 0.9 µM.
For `CCON1CCN(c2nc3n(CC(=O)Nc4ccc(C(F)(F)F)cc4)c(C)c(N4CCN(C(C)=O)CC4)c(=O)n3n2)CC1` [Example 131, 2-(6-(4-acetylpiperazin-1-yl)-2-(4-ethoxypiperazin-1-yl)-5-methyl-7-oxo-[1,2,4]triazolo[1,5-a]pyrimidin-4(7H)-yl)-N-(4-(trifluoromethyl)phenyl)acetamide], the GI50 in test [1] is 6 µM; in test [2], greater than 10 µM. Also, the IC50 in test [3] was found to be 1 µM.
Turning to `CON1CCN(c2nc3n(CC(=O)Nc4ccc(C(F)(F)F)cc4)c(C)c(N4CCN(C(C)=O)CC4)c(=O)n3n2)CC1` [Example 132, 2-(6-(4-acetylpiperazin-1-yl)-2-(4-methoxypiperazin-1-yl)-5-methyl-7-oxo-[1,2,4]triazolo[1,5-a]pyrimidin-4(7H)-yl)-N-(4-(trifluoromethyl)phenyl)acetamide], the values for the GI50 in test [1] and in test [2] were 10 µM and greater than 10 µM, respectively. This molecule had an IC50 in test [3] of 2 µM.
With `COCC1CCN(c2nc3n(CC(=O)Nc4ccc(C(F)(F)F)cc4)c(C)c(N4CCN(C(C)=O)CC4)c(=O)n3n2)C1` (stereo not drawn) [Example 133, 2-(6-(4-acetylpiperazin-1-yl)-2-(3-(methoxymethyl)pyrrolidin-1-yl)-5-methyl-7-oxo-[1,2,4]triazolo[1,5-a]pyrimidin-4(7H)-yl)-N-(4-(trifluoromethyl)phenyl)acetamide], the GI50 in test [1] was 6 µM; in test [2], greater than 10 µM. Besides, the concentration for half-maximal inhibition (IC50) in test [3] stood at 2 µM.
Regarding `CC(=O)N1CCN(c2c(C)n(CC(=O)Nc3ccc(C(F)(F)F)cc3)c3nc(C4=CCCO4)nn3c2=O)CC1` [Example 134, 2-(6-(4-acetylpiperazin-1-yl)-2-(4,5-dihydrofuran-2-yl)-5-methyl-7-oxo-[1,2,4]triazolo[1,5-a]pyrimidin-4(7H)-yl)-N-(4-(trifluoromethyl)phenyl)acetamide], the GI50 in test [1] was 5 µM; in test [2], greater than 10 µM. The IC50 in test [3] was determined as 4 µM.
For the molecule `CC(=O)N1CCN(c2c(C)n(CC(=O)Nc3ccc(C(F)(F)F)cc3)c3nc(-c4cnc(C)o4)nn3c2=O)CC1` [Example 135, 2-(6-(4-acetylpiperazin-1-yl)-5-methyl-2-(2-methyloxazol-5-yl)-7-oxo-[1,2,4]triazolo[1,5-a]pyrimidin-4(7H)-yl)-N-(4-(trifluoromethyl)phenyl)acetamide], the GI50 in test [1] and in test [2] was greater than 10 µM each time. Further, the midpoint of inhibition in test [3], the IC50, lay at 0.4 µM.
As for `Cc1c(C2CCN(C(=O)c3c(F)ccc(F)c3O)CC2)c(=O)n2nc(C3=CCOCC3)nc2n1CC(=O)Nc1ccc(C(F)(F)F)cc1` [Example 136, 2-(6-(1-(3,6-difluoro-2-hydroxybenzoyl)piperidin-4-yl)-2-(3,6-dihydro-2H-pyran-4-yl)-5-methyl-7-oxo-[1,2,4]triazolo[1,5-a]pyrimidin-4(7H)-yl)-N-(4-(trifluoromethyl)phenyl)acetamide], the GI50 in test [1] was 0.5 µM; in test [2] it was greater than 10 µM. This molecule showed an IC50 in test [3] of 0.02 µM.
